The values that follow come from patent US20260184663A1, “INDENE COMPOUNDS, PHARMACEUTICAL COMPOSITIONS THEREOF, AND THEIR THERAPEUTIC APPLICATIONS” (NucMito Pharmaceuticals co. Ltd., priority 2022, published 2026).

Like-named read-outs stand apart in the source and are kept apart here.

Common to all, as to format: cell-based
Assay [1] relates to A549 (lung adenocarcinoma). In words: Antiproliferative activity (CCK-8 cell viability), A549. Conditions: Homo sapiens, 72 h, read-out: Antiproliferative activity in cancerous cells, A549 (inhibition of cell growth); for inhibition at 3.3 µM: Compound concentration: 3.3 μM; for inhibition at 10 µM: Compound concentration: 10 μM. A digest of the protocol:
(§1)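 Cells were seeded at 2,000-5,000/well (HeLa in MEM, HepG2 and SW480 in DMEM, A549 in F-12K, all with 10% FBS) and treated with compound at 3.3, 10 or 30 μM for 72 h at 37° C. CCK-8 was added for 4 h, absorbance was read at 450 nm, and viability was expressed relative to DMSO-treated wells.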

In assay [2] the test system is B16F10 (malignant melanoma). In words: Antiproliferative activity (CCK-8 cell viability), B16F10. Conditions: Mus musculus, 72 h, read-out: Antiproliferative activity in cancerous cells, B16F10 (inhibition of cell growth); for inhibition at 3.3 µM: B16-F10, Compound concentration: 3.3 μM; for inhibition at 10 µM: B16-F10, Compound concentration: 10 μM. An outline of the steps: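 Attached B16F10 cells in 96-well plates were incubated with compound at 37° C for 72 h, followed by 10 μL CCK-8 reagent per well and a further 4 h incubation. A multi-well plate reader measured absorbance at 450 nm. Percent viability across replicates was calculated against DMSO vehicle-treated cells.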

For a further assay, the system named is HeLa (cervical cancer). In words: Antiproliferative activity (CCK-8 cell viability), HeLa. Conditions: Homo sapiens, 72 h, read-out: Antiproliferative activity in cancerous cells, HELA (inhibition of cell growth); for inhibition at 3.3 µM: Compound concentration: 3.3 μM; for inhibition at 10 µM: Compound concentration: 10 μM. A digest of the protocol: as §1

Assay [3] concerns MDA-MB-231 (breast cancer). In words: Antiproliferative activity (CCK-8 cell viability), MDA-MB-231. Conditions: Homo sapiens, 72 h; for inhibition at 3.3 µM: Compound concentration: 3.3 μM; for inhibition at 10 µM: Compound concentration: 10 μM; for inhibition at 30 µM: Compound concentration: 30 μM. A digest of the protocol:
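In this CCK-8 viability assay, MDA-MB-231 cells maintained in Dulbecco's modified Eagle's medium containing 10% fetal bovine serum were placed in 96-well plates (2,000-5,000 cells/well) and treated with compound for 72 h at 37° C. A 4 h incubation with 10 μL CCK-8 followed, plates were read at 450 nm, and viability was expressed against DMSO vehicle wells across replicates.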

For a further assay, the system named is SW480 (colon cancer). The assay is described as follows: Antiproliferative activity (CCK-8 cell viability), SW480. Conditions: Homo sapiens, 72 h; for inhibition at 3.3 µM: Compound concentration: 3.3 μM; for inhibition at 10 µM: Compound concentration: 10 μM; for inhibition at 30 µM: Compound concentration: 30 μM. A digest of the protocol:
as §1

The next assay concerns HepG2 (liver cancer). In words: Antiproliferative activity (CCK-8 cell viability), HepG2. The note with it: Homo sapiens, 72 h, read-out: Antiproliferative activity in cancerous cells, HepG2 (inhibition of cell growth); for inhibition at 3.3 µM: Compound concentration: 3.3 μM; for inhibition at 10 µM: Compound concentration: 10 μM. A digest of the protocol:
as §1

For assay [4], the system named is A431 (epidermoid carcinoma). The assay is described as follows: Antiproliferative activity (CCK-8 cell viability), A431. The note with it: Homo sapiens, 72 h, read-out: Antiproliferative activity in cancerous cells, A431 (inhibition of cell growth); for inhibition at 3.3 µM: A-431, Compound concentration: 3.3 μM; for inhibition at 10 µM: A-431, Compound concentration: 10 μM. A digest of the protocol: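 Cell viability of compound-treated A431 cells was measured with a Cell Counting Kit-8. Each well received 10 μL of CCK-8 after 72 h of compound exposure, followed by 4 h incubation at 37° C. and a 450 nm plate-reader measurement. Percent viability was calculated relative to DMSO controls across replicates.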

Setting [5] is: read-out: Antiproliferative activity in cancerous cells, MDA-MB-231 (inhibition of cell growth).
The mark [6] stands for this setting: read-out: Antiproliferative activity in cancerous cells, SW480 (inhibition of cell growth).

`CC1=C(CC(=O)O)c2cc(F)ccc2/C1=C\c1ccc(CCc2ccc(F)cc2)cc1` [B145, (Z)-2-(5-Fluoro-1-(4-(4-fluorophenethyl)benzylidene)-2-methyl-1H-inden-3-yl)acetic acid]: the inhibition at 3.3 µM in assay [1] is less than 30%; in assay [2] it was less than 30%; with HeLa (cervical cancer) it was 30 to 50%; in assay [3] (setting [5]), less than 30%; in the assay on SW480 (colon cancer) (setting [6]) it was less than 30%; in the assay with HepG2 (liver cancer) it was less than 30%. Also, the inhibition at 3.3 µM in assay [4] is no less than 50%. For the same molecule, the inhibition at 10 µM in assay [1] is less than 30%; in assay [2], less than 30%; in the assay on HeLa (cervical cancer), no less than 50%; in assay [3] (setting [5]), less than 30%; in the assay with SW480 (colon cancer) (setting [6]), less than 30%; in the assay with HepG2 (liver cancer), no less than 50%. Besides, the inhibition at 10 µM in assay [4] is no less than 50%. The inhibition at 30 µM with SW480 (colon cancer) (read-out: Antiproliferative activity in cancerous cells, SW480) was in the range of 30 to 50%.

With `CC1=C(CC(=O)O)c2cc(Br)ccc2/C1=C/c1ccc(Oc2ccc(F)cc2)cc1` [E32, (E)-2-(5-Bromo-1-(4-(4-fluorophenoxy)benzylidene)-2-methyl-1H-inden-3-yl)acetic acid], the inhibition at 3.3 µM is 30 to 50% in assay [1]; no less than 50% in assay [2]; no less than 50% in the assay with HeLa (cervical cancer); no less than 50% in assay [3] (setting [5]); 30 to 50% with SW480 (colon cancer) (setting [6]); less than 30% in the assay with HepG2 (liver cancer). In assay [4], the inhibition at 3.3 µM was no less than 50%. Moreover, the inhibition at 10 µM (in assay [1]; in assay [2]; with HeLa (cervical cancer); in assay [3] (setting [5]); in the assay with SW480 (colon cancer) (setting [6]); in the assay on HepG2 (liver cancer)) was no less than 50% in each case. Moreover, the inhibition at 10 µM in assay [4] was no less than 50%. Besides, the inhibition at 30 µM in assay [1] (Compound concentration: 30 μM) is no less than 50%; in assay [2] (B16-F10, Compound concentration: 30 μM), no less than 50%; in the assay on HeLa (cervical cancer) (Compound concentration: 30 μM), no less than 50%; in assay [3] (setting [5]), no less than 50%; in the assay on SW480 (colon cancer) (setting [6]), no less than 50%; with HepG2 (liver cancer) (Compound concentration: 30 μM) it was no less than 50%. Further, the inhibition at 30 µM in assay [4] (A-431, Compound concentration: 30 μM) is no less than 50%.

For the molecule `CCc1ccc2c(c1)C(CC(=O)O)=C(C)/C2=C/c1ccc(COc2ccc(C(F)(F)F)cc2)cc1` [B60, (Z)-2-(5-Ethyl-2-methyl-1-(4-((4-(trifluoromethyl)phenoxy)methyl)benzylidene)-1H-inden-3-yl)acetic acid], the inhibition at 3.3 µM was 30 to 50% in assay [1]; 30 to 50% in assay [2]; 30 to 50% in the assay on HeLa (cervical cancer); less than 30% in assay [3] (setting [5]); less than 30% in the assay on SW480 (colon cancer) (setting [6]); no less than 50% with HepG2 (liver cancer). The inhibition at 3.3 µM in assay [4] was no less than 50%. In addition, the inhibition at 10 µM in assay [1] is no less than 50%; in assay [2], no less than 50%; in the assay on HeLa (cervical cancer), no less than 50%; in assay [3] (setting [5]), less than 30%; in the assay on SW480 (colon cancer) (setting [6]) it was no less than 50%; in the assay on HepG2 (liver cancer) it was no less than 50%. Besides, the inhibition at 10 µM in assay [4] is no less than 50%.

With `CC1=C(CC(=O)O)c2cc(C)ccc2/C1=C\c1ccc(COCc2ccc(Cl)cc2)cc1` [B149, (Z)-2-(1-(4-(((4-Chlorobenzyl)oxy)methyl)benzylidene)-2,5-dimethyl-1H-inden-3-yl)acetic acid], the inhibition at 3.3 µM is 30 to 50% in assay [1]; less than 30% in assay [2]; less than 30% with HeLa (cervical cancer); less than 30% in assay [3] (setting [5]); less than 30% with SW480 (colon cancer) (setting [6]); less than 30% in the assay on HepG2 (liver cancer). In assay [4], the inhibition at 3.3 µM is no less than 50%. Moreover, the inhibition at 10 µM in assay [1] was no less than 50%; in assay [2] it was less than 30%; in the assay on HeLa (cervical cancer), no less than 50%; in assay [3] (setting [5]), 30 to 50%; in the assay on SW480 (colon cancer) (setting [6]) it was 30 to 50%; in the assay with HepG2 (liver cancer) it was no less than 50%. In addition, the inhibition at 10 µM in assay [4] was no less than 50%.

Consider `CC1=C(CC(=O)O)c2ccc(Cl)cc2/C1=C\c1ccc(Oc2ccc(F)cc2)cc1` [C67, (Z)-2-(6-Chloro-1-(4-(4-fluorophenoxy)benzylidene)-2-methyl-1H-inden-3-yl)acetic acid], for which the inhibition at 3.3 µM is less than 30% in assay [1]; less than 30% in assay [2]; less than 30% with HeLa (cervical cancer); less than 30% in assay [3] (setting [5]); 30 to 50% in the assay with SW480 (colon cancer) (setting [6]); 30 to 50% with HepG2 (liver cancer). In addition, the inhibition at 3.3 µM in assay [4] was in the range of 30 to 50%. Moreover, the inhibition at 10 µM was no less than 50% in assay [1]; less than 30% in assay [2]; less than 30% in the assay with HeLa (cervical cancer); no less than 50% in assay [3] (setting [5]); 30 to 50% in the assay on SW480 (colon cancer) (setting [6]); no less than 50% with HepG2 (liver cancer). In addition, in assay [4], the inhibition at 10 µM was no less than 50%.

For `CC1=C(CC(=O)O)c2cc(F)ccc2/C1=C\c1ccc(S(=O)(=O)c2ccc(F)cc2)cc1` [C40, (Z)-2-(5-Fluoro-1-(4-((4-fluorophenyl)sulfonyl)benzylidene)-2-methyl-1H-inden-3-yl)acetic acid], the inhibition at 3.3 µM was less than 30% in assay [1]; less than 30% in assay [2]; less than 30% in the assay with HeLa (cervical cancer); 30 to 50% in assay [3] (setting [5]); less than 30% in the assay with SW480 (colon cancer) (setting [6]); less than 30% with HepG2 (liver cancer). In assay [4], the inhibition at 3.3 µM lay in the range of 30 to 50%. The inhibition at 10 µM in assay [1] is 30 to 50%; in assay [2] it was no less than 50%; in the assay on HeLa (cervical cancer), no less than 50%; in assay [3] (setting [5]), 30 to 50%; with SW480 (colon cancer) (setting [6]), no less than 50%; with HepG2 (liver cancer), no less than 50%. Besides, the inhibition at 10 µM in assay [4] was in the range of 30 to 50%. In addition, the inhibition at 30 µM in assay [3] (read-out: Antiproliferative activity in cancerous cells, MDA-MB-231) was 30 to 50%.
